Assay results published in US20230146675A1, “PYRIMIDO[5,4-d]PYRIMIDINE DERIVATIVES AS ENT INHIBITORS FOR THE TREATMENT OF CANCERS, AND COMBINATION THEREOF WITH ADENOSINE RECEPTOR ANTAGONISTS” (ITEOS BELGIUM SA, priority 2020, published 2023).

What follows are molecules tested against T1, human ENT1 (Homo sapiens, UniProt Q99808) (assay: ENT1 binding assay (competition with Sahenta-DY647 on JAR cells)). Conditions: binned IC50.
T1 sequence (Q99808 1-456): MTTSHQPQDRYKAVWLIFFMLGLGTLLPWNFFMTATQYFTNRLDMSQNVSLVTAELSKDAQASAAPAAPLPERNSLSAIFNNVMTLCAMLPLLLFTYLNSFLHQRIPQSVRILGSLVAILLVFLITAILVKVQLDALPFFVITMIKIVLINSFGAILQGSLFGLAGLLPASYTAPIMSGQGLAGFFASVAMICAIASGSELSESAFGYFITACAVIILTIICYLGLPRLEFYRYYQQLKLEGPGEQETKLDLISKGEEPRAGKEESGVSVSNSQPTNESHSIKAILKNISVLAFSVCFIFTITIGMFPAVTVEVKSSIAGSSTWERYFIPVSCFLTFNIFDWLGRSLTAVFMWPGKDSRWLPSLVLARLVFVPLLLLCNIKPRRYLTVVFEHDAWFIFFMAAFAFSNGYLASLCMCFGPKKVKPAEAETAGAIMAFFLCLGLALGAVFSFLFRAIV
Parameters: JAR cells expressing ENT1 were bought from ATCC; host or cells: JAR cells
Outline: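 JAR cells were incubated with test compounds and the fluorescent ligand Sahenta-DY647 in competition. Plates were washed twice by centrifugation (4 min, 400 rcf, 4 °C). Binding potency was derived from the final fluorescence.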

Row | SMILES | IC50
1 | COCCN(CCOC)c1nc(N2CCC(OC)CC2)c2nc(N(CCOC)CCOC)nc(N3CCC(NC(C)=O)CC3)c2n1 [Compound 88, N-(1-(2,6-bis(bis(2-methoxyethyl)amino)-8-(4-methoxypiperidin-1-yl)pyrimido[5,4-d]pyrimidin-4-yl)piperidin-4-yl)acetamide] | 500 to 1000 nM
2 | COCCN(CCOC)c1nc(N2CCC(OC)CC2)c2nc(N(CCOC)CCOC)nc(N3CCCC3)c2n1 [Compound 89, N2,N2,N6,N6-tetrakis(2-methoxyethyl)-4-(4-methoxypiperidin-1-yl)-8-(pyrrolidin-1-yl)pyrimido[5,4-d]pyrimidine-2,6-diamine] | 100 to 500 nM
3 | COCCN(CCOC)c1nc(N2CCC(OC)CC2)c2nc(N(CCOC)CCOC)nc(N3CCC(C#N)CC3)c2n1 [Compound 90, 1-(2,6-bis(bis(2-methoxyethyl)amino)-8-(4-methoxypiperidin-1-yl)pyrimido[5,4-d]pyrimidin-4-yl)piperidine-4-carbonitrile] | 100 to 500 nM
4 | COCCN(CCOC)c1nc(N2CCC(C)C2)c2nc(N(CCOC)CCOC)nc(N3CCC(OC)CC3)c2n1 (stereo not drawn) [Compound 91, N2,N2,N6,N6-tetrakis(2-methoxyethyl)-4-(4-methoxypiperidin-1-yl)-8-(3-methylpyrrolidin-1-yl)pyrimido[5,4-d]pyrimidine-2,6-diamine] | 100 to 500 nM
5 | COCCN(CCOC)c1nc(N2CC(CO)C2)c2nc(N(CCOC)CCOC)nc(N3CCC(OC)CC3)c2n1 [Compound 92, (1-(2,6-bis(bis(2-methoxyethyl)amino)-8-(4-methoxypiperidin-1-yl)pyrimido[5,4-d]pyrimidin-4-yl)azetidin-3-yl)methanol] | 100 to 500 nM
6 | COCCN(CCOC)c1nc(N2CCC(OC)CC2)c2nc(N(CCOC)CCOC)nc(NCCc3cnc[nH]3)c2n1 [Compound 95, N4-(2-(1H-imidazol-5-yl)ethyl)-N2,N2,N6,N6-tetrakis(2-methoxyethyl)-8-(4-methoxypiperidin-1-yl)pyrimido[5,4-d]pyrimidine-2,4,6-triamine] | 500 to 1000 nM
7 | COCCN(CCOC)c1nc(N2CCCC(OC)C2)c2nc(N(CCOC)CCOC)nc(N3CCC(OC)CC3)c2n1 (stereo not drawn) [Compound 96, N2,N2,N6,N6-tetrakis(2-methoxyethyl)-4-(3-methoxypiperidin-1-yl)-8-(4-methoxypiperidin-1-yl)pyrimido[5,4-d]pyrimidine-2,6-diamine] | 100 to 500 nM
8 | COCCN(CCOC)c1nc(N2CC(C)(O)C2)c2nc(N(CCOC)CCOC)nc(N3CCC(OC)CC3)c2n1 [Compound 101, 1-(2,6-bis(bis(2-methoxyethyl)amino)-8-(4-methoxypiperidin-1-yl)pyrimido[5,4-d]pyrimidin-4-yl)-3-methylazetidin-3-ol] | 500 to 1000 nM
9 | COCCN(CCOC)c1nc(N2CC[C@H](F)C2)c2nc(N(CCOC)CCOC)nc(N3CCC(OC)CC3)c2n1 [Compound 102, (S)-4-(3-fluoropyrrolidin-1-yl)-N2,N2,N6,N6-tetrakis(2-methoxyethyl)-8-(4-methoxypiperidin-1-yl)pyrimido[5,4-d]pyrimidine-2,6-diamine] | < 100 nM
10 | COCCN(CCOC)c1nc(N2CCC(F)C2)c2nc(N(CCOC)CCOC)nc(N3CCC(OC)CC3)c2n1 (stereo not drawn) [Compound 104, 4-(3-fluoropyrrolidin-1-yl)-N2,N2,N6,N6-tetrakis(2-methoxyethyl)-8-(4-methoxypiperidin-1-yl)pyrimido[5,4-d]pyrimidine-2,6-diamine] | 100 to 500 nM
11 | COCCN(CCOC)c1nc(N2CC(F)(F)C2)c2nc(N(CCOC)CCOC)nc(N3CCC(OC)CC3)c2n1 [Compound 105, 4-(3,3-difluoroazetidin-1-yl)-N2,N2,N6,N6-tetrakis(2-methoxyethyl)-8-(4-methoxypiperidin-1-yl)pyrimido[5,4-d]pyrimidine-2,6-diamine] | 100 to 500 nM
12 | COCCN(CCOC)c1nc(N2CCC(OC)CC2)c2nc(N(CCOC)CCOC)nc(N3CCC(F)CC3)c2n1 [Compound 108, 4-(4-fluoropiperidin-1-yl)-N2,N2,N6,N6-tetrakis(2-methoxyethyl)-8-(4-methoxypiperidin-1-yl)pyrimido[5,4-d]pyrimidine-2,6-diamine] | < 100 nM
13 | COCCN(CCOC)c1nc(N2CCC(F)(F)C2)c2nc(N(CCOC)CCOC)nc(N3CCC(OC)CC3)c2n1 [Compound 109, 4-(3,3-difluoropyrrolidin-1-yl)-N2,N2,N6,N6-tetrakis(2-methoxyethyl)-8-(4-methoxypiperidin-1-yl)pyrimido[5,4-d]pyrimidine-2,6-diamine] | 100 to 500 nM
14 | COCCN(CCOC)c1nc(N2C[C@@H](C)O[C@@H](C)C2)c2nc(N(CCOC)CCOC)nc(N3CCC(OC)CC3)c2n1 [Compound 110, 4-((2R,6S)-2,6-dimethylmorpholino)-N2,N2,N6,N6-tetrakis(2-methoxyethyl)-8-(4-methoxypiperidin-1-yl)pyrimido[5,4-d]pyrimidine-2,6-diamine] | < 100 nM
15 | COCCN(CCOC)c1nc(N2CC(O)(C(F)(F)F)C2)c2nc(N(CCOC)CCOC)nc(N3CCC(OC)CC3)c2n1 [Compound 111, 1-(2,6-bis(bis(2-methoxyethyl)amino)-8-(4-methoxypiperidin-1-yl)pyrimido[5,4-d]pyrimidin-4-yl)-3-(trifluoromethyl)azetidin-3-ol] | < 100 nM
16 | COCCN(CCOC)c1nc(N2CCCC(CO)C2)c2nc(N(CCOC)CCOC)nc(N3CCC(OC)CC3)c2n1 (stereo not drawn) [Compound 115, (1-(2,6-bis(bis(2-methoxyethyl)amino)-8-(4-methoxypiperidin-1-yl)pyrimido[5,4-d]pyrimidin-4-yl)piperidin-3-yl)methanol] | 100 to 500 nM

More lines, now with the values ahead:

Row | IC50 | SMILES
17 | 500 to 1000 nM | COCCN(CCOC)c1nc(N2CC[C@@H](O)C2)c2nc(N(CCOC)CCOC)nc(N3CCC(OC)CC3)c2n1 [Compound 93, (R)-1-(2,6-bis(bis(2-methoxyethyl)amino)-8-(4-methoxypiperidin-1-yl)pyrimido[5,4-d]pyrimidin-4-yl)pyrrolidin-3-ol]
18 | 500 to 1000 nM | COCCN(CCOC)c1nc(N2CCC(O)C2)c2nc(N(CCOC)CCOC)nc(N3CCC(OC)CC3)c2n1 (stereo not drawn) [Compound 94, 1-(2,6-bis(bis(2-methoxyethyl)amino)-8-(4-methoxypiperidin-1-yl)pyrimido[5,4-d]pyrimidin-4-yl)pyrrolidin-3-ol]
19 | 100 to 500 nM | COCCN(CCOC)c1nc(N2CCCN(C(C)=O)CC2)c2nc(N(CCOC)CCOC)nc(N3CCC(OC)CC3)c2n1 [Compound 98, 1-(4-(2,6-bis(bis(2-methoxyethyl)amino)-8-(4-methoxypiperidin-1-yl)pyrimido[5,4-d]pyrimidin-4-yl)-1,4-diazepan-1-yl)ethanone]
20 | 100 to 500 nM | COCCN(CCOC)c1nc(N2CC(F)C2)c2nc(N(CCOC)CCOC)nc(N3CCC(OC)CC3)c2n1 [Compound 99, 4-(3-fluoroazetidin-1-yl)-N2,N2,N6,N6-tetrakis(2-methoxyethyl)-8-(4-methoxypiperidin-1-yl)pyrimido[5,4-d]pyrimidine-2,6-diamine]
21 | 100 to 500 nM | COCCN(CCOC)c1nc(N2CC(C)(C)C2)c2nc(N(CCOC)CCOC)nc(N3CCC(OC)CC3)c2n1 [Compound 100, 4-(3,3-dimethylazetidin-1-yl)-N2,N2,N6,N6-tetrakis(2-methoxyethyl)-8-(4-methoxypiperidin-1-yl)pyrimido[5,4-d]pyrimidine-2,6-diamine]
22 | 100 to 500 nM | COCCN(CCOC)c1nc(N2CC[C@@H](F)C2)c2nc(N(CCOC)CCOC)nc(N3CCC(OC)CC3)c2n1 [Compound 103, (R)-4-(3-fluoropyrrolidin-1-yl)-N2,N2,N6,N6-tetrakis(2-methoxyethyl)-8-(4-methoxypiperidin-1-yl)pyrimido[5,4-d]pyrimidine-2,6-diamine]
23 | 100 to 500 nM | COCCN(CCOC)c1nc(N2CC[C@H](OC)C2)c2nc(N(CCOC)CCOC)nc(N3CCC(OC)CC3)c2n1 [Compound 106, (S)-N2,N2,N6,N6-tetrakis(2-methoxyethyl)-4-(4-methoxypiperidin-1-yl)-8-(3-methoxypyrrolidin-1-yl)pyrimido[5,4-d]pyrimidine-2,6-diamine]
24 | 100 to 500 nM | COCCN(CCOC)c1nc(N2CC[C@@H](OC)C2)c2nc(N(CCOC)CCOC)nc(N3CCC(OC)CC3)c2n1 [Compound 107, (R)-N2,N2,N6,N6-tetrakis(2-methoxyethyl)-4-(4-methoxypiperidin-1-yl)-8-(3-methoxypyrrolidin-1-yl)pyrimido[5,4-d]pyrimidine-2,6-diamine]
25 | 100 to 500 nM | COCCN(CCOC)c1nc(N2CCC(OC)CC2)c2nc(N(CCOC)CCOC)nc(N(C)CCO)c2n1 [Compound 112, 2-((2,6-bis(bis(2-methoxyethyl)amino)-8-(4-methoxypiperidin-1-yl)pyrimido[5,4-d]pyrimidin-4-yl)(methyl)amino)ethanol]
26 | 100 to 500 nM | COCCN(CCOC)c1nc(N2CCOC(C)C2)c2nc(N(CCOC)CCOC)nc(N3CCC(OC)CC3)c2n1 (stereo not drawn) [Compound 113, N2,N2,N6,N6-tetrakis(2-methoxyethyl)-4-(4-methoxypiperidin-1-yl)-8-(2-methylmorpholino)pyrimido[5,4-d]pyrimidine-2,6-diamine]
27 | < 100 nM | COCCN(CCOC)c1nc(N2CCn3cncc3C2)c2nc(N(CCOC)CCOC)nc(N3CCC(OC)CC3)c2n1 [Compound 114, 4-(5,6-dihydroimidazo[1,5-a]pyrazin-7(8H)-yl)-N2,N2,N6,N6-tetrakis(2-methoxyethyl)-8-(4-methoxypiperidin-1-yl)pyrimido[5,4-d]pyrimidine-2,6-diamine]
